Test: Solubility of the potassium salts equilibrated in aqueous potassium carbonate solutions
Format: physicochemical
Excerpt: The data was gathered by equilibrating the potassium salts of 2-KNA and 2,6-K2NDA in aqueous solutions of potassium carbonate. The capped jars were contained in water baths to control the temperature and were magnetically stirred to speed the dissolution of the solids. Data derived from the solubility studies are outlined in Table 6.

[1] = 10 wt % K2CO3 aqueous solution, 35° C.
[2] = 15 wt % K2CO3 aqueous solution, 35° C.
[3] = 20 wt % K2CO3 aqueous solution, 35° C.
[4] = 20 wt % K2CO3 aqueous solution, 80° C.
[5] = 25 wt % K2CO3 aqueous solution, 35° C.
[6] = 25 wt % K2CO3 aqueous solution, 80° C.
[7] = 30 wt % K2CO3 aqueous solution, 35° C.
[8] = 30 wt % K2CO3 aqueous solution, 80° C.

Solubility [1] [wt %] | Solubility [2] [wt %] | Solubility [3] [wt %] | Solubility [4] [wt %] | Solubility [5] [wt %] | Solubility [6] [wt %] | Solubility [7] [wt %] | Solubility [8] [wt %] | Solubility Ratio 2,6-K2NDA/2-KNA (10 wt % K2CO3, 35° C.) | Solubility Ratio 2,6-K2NDA/2-KNA (15 wt % K2CO3, 35° C.) | Solubility Ratio 2,6-K2NDA/2-KNA (20 wt % K2CO3, 35° C.) | Solubility Ratio 2,6-K2NDA/2-KNA (20 wt % K2CO3, 80° C.) | Solubility Ratio 2,6-K2NDA/2-KNA (25 wt % K2CO3, 35° C.) | Solubility Ratio 2,6-K2NDA/2-KNA (25 wt % K2CO3, 80° C.) | Solubility Ratio 2,6-K2NDA/2-KNA (30 wt % K2CO3, 35° C.) | Solubility Ratio 2,6-K2NDA/2-KNA (30 wt % K2CO3, 80° C.) | Temperature dependence of solubility (aqueous K2CO3 solutions, 35° C. vs 80° C.) | Compound
33.9 | 13.2 | 2.1 | 41.1 | 0.4 | 19.2 | 0.2 | 7.4 |  |  |  |  |  |  |  |  |  | O=C([O-])c1ccc2ccccc2c1.[K+] [2-KN]
13.8 | 6.8 | 2.4 | 5.5 | 0.6 | 1.6 | 0.2 | 0.6 | 0.41 | 0.52 | 1.13 | 0.13 | 1.41 | 0.08 | 1.33 | 0.08 | only a weak function of temperature | O=C([O-])c1ccc2cc(C(=O)[O-])ccc2c1.[K+].[K+] [2,6-K2NDA, dipotassium salt of 2,6-NDA]

— patent publication US6448436B1, “Integrated process for the production of 2, 6-naphthalene dicarboxylic acid” (Mossi & Ghisolfi Overseas, S. A., priority 1999, dated 2002)
